Values joined by “and” are separate entries in the source; they are usually repeats but may differ in a detail not shown here. Equal entries are not always repeated.
Columns and labels:
[1] = Absorption and fluorescence emission spectra in DMF; assay type: physicochemical; details: in DMF
Protocol: An absorption spectrum of 2.475 mL of solvent (water, DMF, or PBS) was taken (i.e., absorption spectrum of baseline); then, 25 μL of stock solution was added to reach the final concentration of 1 μM in the cuvette, and the absorption and emission spectra were taken. Baseline of the solvent was subtracted from the obtained absorption spectrum to get the final absorption spectrum of the sample.

[2] = Fluorescence quantum yield, comparative method; assay type: physicochemical; details: in DMF; ZnPc as reference
Protocol: The fluorescence quantum yields (ΦF) were determined by a comparative method with ZnPc as the reference (ΦF = 0.32 in THF). The ΦF values were calculated using the following formula: ϕFS=ϕFR(F^S/F^R)(1−10^−A^R/1−10^−A^S)(η^S/η^R)^2 where F is the integrated area under the emission spectrum and A is the absorbance at the excitation wavelength. Superscripts R and S indicate the reference and sample, respectively. η stands for the refractive index of the solvent. Absorption in the Q-band was kept below 0.05 to eliminate the inner filter effect. Excitation wavelengths were the same as those used for emission spectra (see above). The emission wavelengths were set to their emission maxima to avoid exceeding the detector limit with stimated error ± 15%.

[3] = Fluorescence lifetime in DMF; assay type: physicochemical
Description: 1 Photophysical Data of Investigated Derivatives in DMF ^a | column: τF1/ns; τF2/ns

[4] = Quantum yield of singlet oxygen production, comparative method with DPBF scavenger; assay type: physicochemical; details: in DMF, ZnPc as reference
Protocol: Eight μL of the 100 μM stock solution of the dye in DMF (or DMF + water or water; see above) was added. A xenon lamp (100 W, ozone free XE DC short arc lamp, New port) was used to irradiate the sample while stirring. The incident light was filtered through a water filter (6 cm) and cut off filter OG530 eliminating heat and light under 523 nm, respectively. […] The decrease of DPBF in solution with irradiation time was monitored at 415 nm. The values of ΦΔ of the dyes were calculated by the following equation: φΔS=φΔ[…] is the slope of the plot of the dependence of ln([…] 0 and A t being the absorbances of the DPBF at 415 nm before irradiation and after irradiation time t, respectively. I aT is the total amount of light absorbed by the dye sample. Superscripts R and S indicate the reference and sample, respectively. I aT is calculated as a sum of intensities of the absorbed light I a at wavelengths from 523 to 850 nm (step 0.5 nm). Light under 523 nm is completely filtered by an OG530 filter, and light above 850 nm is not absorbed by the studied dye sample. I a at a given wavelength is calculated using Beer-Lambert'[…]) where I 0 is transmittance of the filter at the given wavelength and A is the absorbance of the dye at this wavelength. All experiments were performed three times, and the data presented is the mean value of the three obtained results with estimated error ± 10%.

[5] = Log P, partition between n-octanol and PBS; assay type: physicochemical; details: partition coefficient between 1-octanol and PBS
Protocol: 400 μL portion of n-octanol and 400 μL of PBS buffer were mixed in a plastic Eppendorf vial. Then, 20 μL of the 100 μM stock solution of the sample (see above) was added to this mixture, vortexed for 5 min at rt, and then centrifuged for 10 min (10 000 rpm, rt). 50 μL of each of these layers was taken into 2.5 mL of DMF in a quartz cuvette, and their emission spectra (excitation wavelengths in Table ) were recorded. The log P value was then computed using the area under the curve of the emission spectra of n-octanol (F oct) and PBS buffer (F PBS) layers as follows: logP=log(Foct/FPBS) Triplicate measurements were performed, and the data reported are the mean of the obtained results.

[6] = system: HeLa (human cervical carcinoma); experiment: Photodynamic activity (phototoxicity, neutral red uptake) on HeLa; assay type: cell-based; details: 12 h incubation, Xe-lamp 15 min, λ > 570 nm, 11.2 J/cm^2, mean ± SD, t.w. = this work
Protocol: (§1) Detailed in vitro studies involving subcellular localization and determination of the EC50 in three different cell lines (human cervical carcinoma–HeLa, human breast adenocarcinoma–MCF-7, and human skin melanoma–SK-MEL-28) were performed. A broadband light source (ozone-free 450 W Xe-lamp, Newport) equipped with the long-pass filter Schott OG570 was used (12.4 mW/cm^2, 15 min, 11.2 J/cm^2).
(§2) For the cytotoxicity experiments (phototoxicity), cells were seeded at 100 μL per well into 96-well plates (TPP, Switzerland) at a density of 7.5 × 10^3 (HeLa) or 1.0 × 10^4 (MCF-7 and SK-MEL-28) cells per well. Cells were left to grow for 24 h (until they reached confluency) in a controlled environment of a CO2 incubator (37 °C, 5% CO2 atmosphere, constant high humidity). Subsequently, studied compounds were added in a wide concentration range and incubated with the cells for 12 h. Cells were washed; fresh cell culture medium was added, and the cells were irradiated using a 450 W Xe lamp (Newport, USA). The lamp was equipped with a long pass filter (Newport OG570) and an 8 cm water filter (λ > 570 nm, 12.4 mW/cm^2, 15 min, 11.2 J/cm^2). Cellular viability was assessed after an additional 24 h by the neutral red (NR; Sigma, Merck, USA) uptake assay. At least three independent experiments, each in triplicate, were performed. The soluble NR was measured at λ = 540 nm using a Tecan Infinite 200 M plate reader (Tecan, Austria). The viability of each experimental group was expressed as the percentage of the untreated cells (100% viability) after subtraction of the signal from cells treated with a lethal dose of hydrogen peroxide (0% viability). […] EC50 values were calculated, and graphs were created by using GraphPad Prism 10.3.1 (Graph Pad software, USA).

[7] = system: MCF-7 (human breast adenocarcinoma); experiment: Photodynamic activity (phototoxicity, neutral red uptake) on MCF-7; assay type: cell-based; details: 12 h incubation, Xe-lamp 15 min, λ > 570 nm, 11.2 J/cm^2, mean ± SD, t.w. = this work
Protocol: as §1, §2

[8] = system: SK-MEL-28 (human skin melanoma); experiment: Photodynamic activity (phototoxicity, neutral red uptake) on SK-MEL-28; assay type: cell-based; details: 12 h incubation, Xe-lamp 15 min, λ > 570 nm, 11.2 J/cm^2, mean ± SD, t.w. = this work
Protocol: as §1, §2

[9] = target: bovine serum albumin (BSA) (Bos taurus, UniProt P02769); experiment: Interaction with bovine serum albumin (absorption and emission spectra in PBS); assay type: binding; details: 1 μM Pc in PBS, BSA 17.5, 35 and 100 μM
Sequence of bovine serum albumin (BSA) (P02769 25-607): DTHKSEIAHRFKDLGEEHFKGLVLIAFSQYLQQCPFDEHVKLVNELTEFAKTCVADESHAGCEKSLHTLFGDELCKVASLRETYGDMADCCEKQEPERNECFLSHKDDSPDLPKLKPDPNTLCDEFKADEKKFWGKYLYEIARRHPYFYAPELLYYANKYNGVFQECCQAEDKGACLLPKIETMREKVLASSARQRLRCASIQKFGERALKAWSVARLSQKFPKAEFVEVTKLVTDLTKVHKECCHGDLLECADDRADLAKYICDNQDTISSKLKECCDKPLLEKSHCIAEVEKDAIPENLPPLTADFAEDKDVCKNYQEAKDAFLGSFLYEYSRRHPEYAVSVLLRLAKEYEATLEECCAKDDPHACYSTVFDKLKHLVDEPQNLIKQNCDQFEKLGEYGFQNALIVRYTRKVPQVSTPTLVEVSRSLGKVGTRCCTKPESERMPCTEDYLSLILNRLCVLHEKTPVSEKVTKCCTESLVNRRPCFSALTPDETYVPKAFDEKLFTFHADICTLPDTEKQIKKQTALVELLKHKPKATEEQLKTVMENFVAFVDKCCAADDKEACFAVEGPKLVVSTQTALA

Row | SMILES | ε, extinction coefficient [1] | λA, absorption maximum in the Q-band [1] | λF, fluorescence emission maximum [1] | ΦF, fluorescence quantum yield [2] | τF1, fluorescence lifetime (relative amplitude in brackets) [3] | τF2, fluorescence lifetime (relative amplitude in brackets) [3] | ΦΔ, quantum yield of singlet oxygen production [4] | Log P [5] | EC50 [6] | EC50 [7] | EC50 [8] | Interaction with BSA: disaggregation/monomerization and changes in absorption and fluorescence emission spectra [9] | logP ([5]; n-octanol/PBS buffer) | EC50 ([6]; Homo sapiens, HeLa, light or radiation study) | EC50 ([7]; Homo sapiens, MCF7, light or radiation study) | EC50 ([8]; Homo sapiens, SK-MEL-28, light or radiation study)
1 | C[n+]1cccc(Oc2ccc3c(c2)C2=NC3=Nc3c4cc(Oc5ccc[n+](C)c5)ccc4c4[n]3[Zn][n]3c(c5ccc(Oc6ccc[n+](C)c6)cc5c3=NC3=NC(=N4)c4cc(Oc5ccc[n+](C)c5)ccc43)=N2)c1.F[P-](F)(F)(F)(F)F.F[P-](F)(F)(F)(F)F.F[P-](F)(F)(F)(F)F.F[P-](F)(F)(F)(F)F [C5Zn-PF 6] | 86 800 M^–1cm^–1 | 674 nm | 682 nm | 0.28 | 2.32 (97%) ns | 6.31 (3%) ns | 0.45 | –2.37 | 52 ± 26 nM | 100 ± 20 nM | 190 ± 40 nM | – | – | – | – | –
2 | OCc1cc(CO)cc(OCCCCSC2=C(SCCCCOc3cc(CO)cc(CO)c3)C3=Nc4c5ccccc5c5[n]4[Mg][n]4c(c6ccccc6c4=NC4=NC(=N5)c5ccccc54)=NC2=N3)c1 [N2Mg] | 15 950 M^–1cm^–1 | 684 nm | 687 nm | 0.16 | 1.29 (25%) ns | 3.39 (75%) ns | 0.17 | – | 107 ± 1 nM | 190 ± 40 nM | 119 ± 14 nM | fluorescence was slightly enhanced | – | – | – | –
3 | O=S(=O)([O-])c1ccc2c(c1)-c1nc-2nc2[nH]c(nc3nc(nc4[nH]c(n1)c1ccccc41)-c1ccc(S(=O)(=O)[O-])cc1-3)c1ccc(S(=O)(=O)[O-])cc21.[Na+].[Na+].[Na+] [A9H] | 104 650 M^–1cm^–1 | – | 703 nm | 0.22 | 1.97 (18%) ns | 3.87 (82%) ns | 0.19 | – | – | – | – | partial | -1.35 | 85 ± 7 nM | 347 ± 125 nM | 300 ± 77 nM
4 | COCCOCCOCCOCCOc1ccc(OCCOCCOCCOCCOC)c2c1C1=NC2=Nc2c3ccccc3c3[n]2[Zn][n]2c(c4ccccc4c2=N1)=NC1=NC(=N3)c2ccccc21 [N1Zn] | 82 550 M^–1cm^–1 | 689 nm | 702 nm | 0.24 | 2.41 ns | – | 0.67 | – | 17 ± 5 nM | 6 ± 1 nM | 16 ± 3 nM | monomerization was apparent even from the absorption spectra | – | – | – | –
5 | C[n+]1cccc(Oc2ccc3c(c2)C2=NC3=Nc3c4cc(Oc5ccc[n+](C)c5)ccc4c4[n]3[Zn][n]3c(c5ccc(Oc6ccc[n+](C)c6)cc5c3=NC3=NC(=N4)c4cc(Oc5ccc[n+](C)c5)ccc43)=N2)c1.[I-].[I-].[I-].[I-] [C5Zn-I] | 130 860 M^–1cm^–1 | 674 nm | 682 nm | 0.25 | 2.38 (97%) ns | 6.53 (3%) ns | 0.49 | –2.19 | 62 ± 13 nM | 60 ± 10 nM | 110 ± 10 nM | – | – | – | – | –
6 | O=S(=O)([O-])c1cc(S(=O)(=O)[O-])c2cc(Oc3cccc4c3C3=NC4=Nc4c5c(Oc6ccc7cc(S(=O)(=O)[O-])cc(S(=O)(=O)[O-])c7c6)cccc5c5[n]4[Zn][n]4c(c6cccc(Oc7ccc8cc(S(=O)(=O)[O-])cc(S(=O)(=O)[O-])c8c7)c6c4=NC4=NC(=N5)c5c(Oc6ccc7cc(S(=O)(=O)[O-])cc(S(=O)(=O)[O-])c7c6)cccc54)=N3)ccc2c1.[Na+].[Na+].[Na+].[Na+].[Na+].[Na+].[Na+].[Na+] [A7Zn] | 109 950 M^–1cm^–1 | 696 nm | 707 nm | 0.23 | – | – | 0.55 | –2.92 | 1300 ± 400 nM | 5100 ± 350 nM | 2120 ± 560 nM | complete | – | – | – | –
7 | C[n+]1cccc(Oc2ccc3c(c2)C2=NC3=Nc3c4cc(Oc5ccc[n+](C)c5)ccc4c4[n]3[Zn][n]3c(c5ccc(Oc6ccc[n+](C)c6)cc5c3=NC3=NC(=N4)c4cc(Oc5ccc[n+](C)c5)ccc43)=N2)c1.O=S(=O)(O)O.O=S(=O)(O)O.O=S(=O)([O-])[O-].O=S(=O)([O-])[O-] [C5Zn-SO 4] | 82 140 M^–1cm^–1 | 674 nm | 682 nm | 0.077 and 0.08 | 2.47 (94%) ns | 4.93 (6%) ns | 0.28 | –3.57 | 53 ± 9 nM | 80 ± 30 nM | 150 ± 50 nM | – | – | – | – | –
